Test results published in PubChem BioAssay AID248 (DTP/NCI, 2004).
Inconclusive results and toxic doses are left out.

Test system: L1210 leukemia ip in BDF1 mice, survival T/C
Experiment: NCI In Vivo Anticancer Drug Screen. Data for tumor model L1210 Leukemia (intraperitoneal) in B6D2F1 (BDF1) mice
Conditions: endpoint: mean survival time, higher = longer survival
In short: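 Read-out is survival time, reported as the treated-group measurement over the vehicle-control measurement.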

[1] = dose: 100.0 mg/kg/injection, schedule: Q04DX003 (ip), vehicle: saline with Tween-80
[2] = dose: 200.0 mg/kg/injection, schedule: Q04DX003 (ip), vehicle: saline with Tween-80
[3] = dose: 400.0 mg/kg/injection, schedule: Q04DX003 (ip), vehicle: saline with Tween-80
[4] = dose: 50.0 mg/kg/injection, schedule: Q04DX003 (ip), vehicle: saline
[5] = dose: 100.0 mg/kg/injection, schedule: Q01DX001 (ip), vehicle: saline
[6] = dose: 200.0 mg/kg/injection, schedule: Q01DX001 (ip), vehicle: saline
[7] = dose: 400.0 mg/kg/injection, schedule: Q01DX001 (ip), vehicle: saline
[8] = dose: 100.0 mg/kg/injection, schedule: Q04DX003 (ip), vehicle: saline
[9] = dose: 200.0 mg/kg/injection, schedule: Q04DX003 (ip), vehicle: saline
[10] = dose: 100.0 mg/kg/injection, schedule: Q01DX001 (ip), vehicle: carboxymethylcellulose (CMC)
[11] = dose: 200.0 mg/kg/injection, schedule: Q01DX001 (ip), vehicle: carboxymethylcellulose (CMC)
[12] = dose: 400.0 mg/kg/injection, schedule: Q01DX001 (ip), vehicle: carboxymethylcellulose (CMC)
[13] = dose: 100.0 mg/kg/injection, schedule: Q01DX009 (ip), vehicle: saline with Tween-80
[14] = dose: 200.0 mg/kg/injection, schedule: Q01DX009 (ip), vehicle: saline with Tween-80
[15] = dose: 400.0 mg/kg/injection, schedule: Q01DX009 (ip), vehicle: saline with Tween-80

In the case of CCCCN(C)N=Nc1c(C(N)=O)n[nH]c1C, the T/C (dose: 1.0 mg/kg/injection, schedule: Q03HX008 (ip), vehicle: Klucel (hydroxypropylcellulose) (HPC)) is reported as 93 % of control, the T/C (dose: 2.0 mg/kg/injection, schedule: Q03HX008 (ip), vehicle: Klucel (hydroxypropylcellulose) (HPC)) is reported as 99 % of control and the T/C (dose: 4.0 mg/kg/injection, schedule: Q03HX008 (ip), vehicle: Klucel (hydroxypropylcellulose) (HPC)) is reported as 100 % of control. The T/C (dose: 4.0 mg/kg/injection, schedule: Q03HX016 (ip), vehicle: Klucel (hydroxypropylcellulose) (HPC)) was 99 % of control, the T/C (dose: 4.0 mg/kg/injection, schedule: Q03HX024 (ip), vehicle: Klucel (hydroxypropylcellulose) (HPC)) was 107 % of control and the T/C (dose: 8.0 mg/kg/injection, schedule: Q01DX009 (ip), vehicle: Klucel (hydroxypropylcellulose) (HPC)) was 102 % of control. For the same compound, the T/C (dose: 8.0 mg/kg/injection, schedule: Q03HX008 (ip), vehicle: Klucel (hydroxypropylcellulose) (HPC)) was 102 % of control, the T/C (dose: 8.0 mg/kg/injection, schedule: Q03HX016 (ip), vehicle: Klucel (hydroxypropylcellulose) (HPC)) was 100 % of control and the T/C (dose: 8.0 mg/kg/injection, schedule: Q03HX024 (ip), vehicle: Klucel (hydroxypropylcellulose) (HPC)) was 108 % of control. The T/C (dose: 8.8 mg/kg/injection, schedule: Q01DX007 (ip), vehicle: Klucel (hydroxypropylcellulose) (HPC)) was 114 % of control, the T/C (dose: 10.0 mg/kg/injection, schedule: Q01DX009 (ip), vehicle: Klucel (hydroxypropylcellulose) (HPC)) was 109 % of control and the T/C (dose: 13.2 mg/kg/injection, schedule: Q01DX007 (ip), vehicle: Klucel (hydroxypropylcellulose) (HPC)) was 120 % of control. For the same compound, the T/C (dose: 15.0 mg/kg/injection, schedule: Q01DX009 (ip), vehicle: Klucel (hydroxypropylcellulose) (HPC)) was 111 % of control, the T/C (dose: 16.0 mg/kg/injection, schedule: Q01DX009 (ip), vehicle: Klucel (hydroxypropylcellulose) (HPC)) was 114 % of control and the T/C (dose: 16.0 mg/kg/injection, schedule: Q03HX016 (ip), vehicle: Klucel (hydroxypropylcellulose) (HPC)) was 119 % of control. For the same compound, the T/C (dose: 32.0 mg/kg/injection, schedule: Q01DX001 (ip), vehicle: Klucel (hydroxypropylcellulose) (HPC)) was 101 % of control, the T/C (dose: 32.0 mg/kg/injection, schedule: Q03HX024 (ip), vehicle: Klucel (hydroxypropylcellulose) (HPC)) was 105 % of control and the T/C (dose: 32.0 mg/kg/injection, schedule: Q04DX003 (ip), vehicle: Klucel (hydroxypropylcellulose) (HPC)) was 105 % of control. The T/C (dose: 32.0 mg/kg/injection, schedule: Q08DX002 (ip), vehicle: Klucel (hydroxypropylcellulose) (HPC)) was 105 % of control, the T/C (dose: 45.0 mg/kg/injection, schedule: Q01DX009 (ip), vehicle: Klucel (hydroxypropylcellulose) (HPC)) was 150 % of control and the T/C (dose: 64.0 mg/kg/injection, schedule: Q01DX001 (ip), vehicle: Klucel (hydroxypropylcellulose) (HPC)) was 105 % of control. For the same compound, the T/C (dose: 64.0 mg/kg/injection, schedule: Q04DX003 (ip), vehicle: Klucel (hydroxypropylcellulose) (HPC)) was 119 % of control, the T/C (dose: 64.0 mg/kg/injection, schedule: Q08DX002 (ip), vehicle: Klucel (hydroxypropylcellulose) (HPC)) was 115 % of control and the T/C (dose: 67.5 mg/kg/injection, schedule: Q01DX009 (ip), vehicle: Klucel (hydroxypropylcellulose) (HPC)) was 113 % of control. For the same compound, the T/C (dose: 128.0 mg/kg/injection, schedule: Q01DX001 (ip), vehicle: Klucel (hydroxypropylcellulose) (HPC)) was 121 % of control, the T/C (dose: 128.0 mg/kg/injection, schedule: Q08DX002 (ip), vehicle: Klucel (hydroxypropylcellulose) (HPC)) was 124 % of control and the T/C (dose: 177.0 mg/kg/injection, schedule: Q01DX001 (ip), vehicle: carboxymethylcellulose (CMC)) was 124 % of control.

Nc1ncc2[nH]c(I)nc2n1 was tested, and the T/C (dose: 5.0 mg/kg/injection, schedule: Q01DX001 (ip), vehicle: saline) was 98 % of control.

In the case of CN(C)c1ccc(/C=N/Nc2ncnc3nc[nH]c23)cc1, the T/C [1] is reported as 98 % of control, the T/C [2] is reported as 96 % of control and the T/C [3] is reported as 91 % of control.

With CCS(=O)(=O)/C=C/c1ccc(Cl)c(Cl)c1 the T/C (dose: 100.0 mg/kg/injection, schedule: Q04DX003 (ip), vehicle: Klucel (hydroxypropylcellulose) (HPC)) was 110 % of control, the T/C (dose: 200.0 mg/kg/injection, schedule: Q04DX003 (ip), vehicle: Klucel (hydroxypropylcellulose) (HPC)) was 97 % of control and the T/C (dose: 400.0 mg/kg/injection, schedule: Q04DX003 (ip), vehicle: Klucel (hydroxypropylcellulose) (HPC)) was 107 % of control.

In the case of CC[C@H](c1ccc(O)cc1)[C@@H](CC)c1ccc(O)cc1, the T/C (dose: 62.5 mg/kg/injection, schedule: Q01DX010 (sc), vehicle: steriod suspending solution) is reported as 104 % of control, the T/C (dose: 125.0 mg/kg/injection, schedule: Q01DX010 (sc), vehicle: steriod suspending solution) is reported as 95 % of control and the T/C (dose: 250.0 mg/kg/injection, schedule: Q01DX010 (sc), vehicle: steriod suspending solution) is reported as 104 % of control.

In the case of CCOC(=O)N1c2ccccc2C=CC1OCC (stereo unspecified), the T/C (dose: 12.0 mg/kg/injection, schedule: Q01DX009 (ip), vehicle: saline) is reported as 93 % of control, the T/C (dose: 12.0 mg/kg/injection, schedule: Q04DX003 (ip), vehicle: saline) is reported as 119 % of control and the T/C (dose: 25.0 mg/kg/injection, schedule: Q01DX009 (ip), vehicle: saline) is reported as 89 % of control. For the same compound, the T/C (dose: 25.0 mg/kg/injection, schedule: Q04DX003 (ip), vehicle: saline) was 113 % of control, the T/C (dose: 50.0 mg/kg/injection, schedule: Q01DX009 (ip), vehicle: saline) was 89 % of control and the T/C [4] was 94 % of control.

In the case of CC(CCO)CCC1OC1(C)C (stereo unspecified), the T/C [5] is reported as 103 % of control, the T/C [6] is reported as 105 % of control and the T/C [7] is reported as 103 % of control.

In the case of COC(=O)CSc1nn2nnnc2c2ccccc12, the T/C [4] is reported as 95 % of control, the T/C [8] is reported as 103 % of control and the T/C [9] is reported as 98 % of control.

In the case of NC(N)=N/N=C(\C=N\N=C(N)N)c1ccc(CCc2ccc(C(/C=N/N=C(N)N)=N\N=C(N)N)cc2)cc1, the T/C (dose: 1.56 mg/kg/injection, schedule: Q04DX003 (ip), vehicle: saline) is reported as 98 % of control and the T/C (dose: 3.12 mg/kg/injection, schedule: Q04DX003 (ip), vehicle: saline) is reported as 103 % of control.

In the case of CS(=O)(=O)Oc1c(Cl)cc(Cl)cc1Sc1cc(Cl)cc(Cl)c1OS(C)(=O)=O, the T/C [10] is reported as 95 % of control, the T/C [11] is reported as 104 % of control and the T/C [12] is reported as 101 % of control.

COC1C(C(=O)O)=CC=CC1OC(C)=O (stereo unspecified) was tested, and the T/C [5] was 90 % of control, the T/C [6] was 102 % of control and the T/C [7] was 104 % of control.

In the case of CCS(=O)(=O)Cc1ccccc1, the T/C (dose: 100.0 mg/kg/injection, schedule: Q01DX009 (ip), vehicle: Klucel (hydroxypropylcellulose) (HPC)) is reported as 100 % of control, the T/C (dose: 200.0 mg/kg/injection, schedule: Q01DX009 (ip), vehicle: Klucel (hydroxypropylcellulose) (HPC)) is reported as 106 % of control and the T/C (dose: 400.0 mg/kg/injection, schedule: Q01DX009 (ip), vehicle: Klucel (hydroxypropylcellulose) (HPC)) is reported as 102 % of control.

In the case of Nc1ncc(CNc2ccc(C(=O)NC(CC(=O)O)C(=O)O)cc2)c(N)n1 (stereo unspecified), the T/C (dose: 100.0 mg/kg/injection, schedule: Q01DX001 (ip), vehicle: saline with Tween-80) is reported as 93 % of control, the T/C [13] is reported as 106 % of control and the T/C [1] is reported as 93 % of control. For the same compound, the T/C (dose: 200.0 mg/kg/injection, schedule: Q01DX001 (ip), vehicle: saline with Tween-80) was 105 % of control, the T/C [14] was 100 % of control and the T/C [2] was 97 % of control. The T/C (dose: 400.0 mg/kg/injection, schedule: Q01DX001 (ip), vehicle: saline with Tween-80) was 100 % of control, the T/C [15] was 105 % of control and the T/C [3] was 98 % of control.

CC1CC(=O)c2c(O)ccc(O)c21 (stereo unspecified) was tested, and the T/C [10] was 96 % of control, the T/C [11] was 89 % of control and the T/C [12] was 100 % of control.

In the case of Cc1cccc(C)c1OC(=O)Nc1ccc(Cl)cc1, the T/C (dose: 100.0 mg/kg/injection, schedule: Q04DX002 (ip), vehicle: Klucel (hydroxypropylcellulose) (HPC)) is reported as 96 % of control, the T/C (dose: 200.0 mg/kg/injection, schedule: Q04DX002 (ip), vehicle: Klucel (hydroxypropylcellulose) (HPC)) is reported as 110 % of control and the T/C (dose: 400.0 mg/kg/injection, schedule: Q04DX002 (ip), vehicle: Klucel (hydroxypropylcellulose) (HPC)) is reported as 96 % of control.

For O=C1NC(=O)C(=O)N1, the T/C [8] was 96 % of control, the T/C [9] was 96 % of control and the T/C (dose: 400.0 mg/kg/injection, schedule: Q04DX003 (ip), vehicle: saline) was 86 % of control.

In the case of CC(=O)N(C(C)=O)c1ccccc1, the T/C [13] is reported as 105 % of control, the T/C [14] is reported as 107 % of control and the T/C [15] is reported as 115 % of control.
